Test results: patent US20200054581A1, “APPLICATION OF TRPM7 INHIBITORS TO TREAT SLEEP APNEA AND HYPERTENSION IN OBESITY” (THE JOHNS HOPKINS UNIVERSITY, priority 2017, published 2020)
“Also recorded” adds a separate entry of the source. Where two headings read alike, the source gives them in different places.

Legend:
[1] = test system: isolated CB-CSN preparations; experiment: hypoxia-induced CSN activity in isolated superfused CB-CSN preparation; design: species or system C57B1/6J (WT) mice; details: for leptin-enhanced hypoxia-induced CSN activity: effect of nonspecific TRP channel antagonist; for hypoxia-induced CSN activity: effect of leptin
Source text: SKF and 2-APB data were pooled, *p<0.05.
Leptin and carotid body function CBs are major peripheral O2 sensors, which initiate chemosensory inputs in the CSN to the respiratory centers via nucleus solitarius to evoke acute hyperventilation, and the rostral ventrolateral medulla presympathetic neurons to stimulate SNS activity. CB plays critical roles in the development of hypertension during chronic intermittent hypoxia (CIH); and the sympatho-excitation and destabilization of breathing during heart failure. However, the connection between CB and the obesity-associated hypertension and respiratory instability has not been clearly established. […] The effect of leptin on isolated CB-CSN preparations from C57B1/6J (WT) mice was studied.

rat glomus cells = details: cited from earlier work
TRPM7 [2] = target: TRPM7 (Homo sapiens, UniProt Q96QT4); details: cited from earlier work
TRPM7 (Homo sapiens, UniProt Q96QT4), sequence (Q96QT4 whole entry, species assumed): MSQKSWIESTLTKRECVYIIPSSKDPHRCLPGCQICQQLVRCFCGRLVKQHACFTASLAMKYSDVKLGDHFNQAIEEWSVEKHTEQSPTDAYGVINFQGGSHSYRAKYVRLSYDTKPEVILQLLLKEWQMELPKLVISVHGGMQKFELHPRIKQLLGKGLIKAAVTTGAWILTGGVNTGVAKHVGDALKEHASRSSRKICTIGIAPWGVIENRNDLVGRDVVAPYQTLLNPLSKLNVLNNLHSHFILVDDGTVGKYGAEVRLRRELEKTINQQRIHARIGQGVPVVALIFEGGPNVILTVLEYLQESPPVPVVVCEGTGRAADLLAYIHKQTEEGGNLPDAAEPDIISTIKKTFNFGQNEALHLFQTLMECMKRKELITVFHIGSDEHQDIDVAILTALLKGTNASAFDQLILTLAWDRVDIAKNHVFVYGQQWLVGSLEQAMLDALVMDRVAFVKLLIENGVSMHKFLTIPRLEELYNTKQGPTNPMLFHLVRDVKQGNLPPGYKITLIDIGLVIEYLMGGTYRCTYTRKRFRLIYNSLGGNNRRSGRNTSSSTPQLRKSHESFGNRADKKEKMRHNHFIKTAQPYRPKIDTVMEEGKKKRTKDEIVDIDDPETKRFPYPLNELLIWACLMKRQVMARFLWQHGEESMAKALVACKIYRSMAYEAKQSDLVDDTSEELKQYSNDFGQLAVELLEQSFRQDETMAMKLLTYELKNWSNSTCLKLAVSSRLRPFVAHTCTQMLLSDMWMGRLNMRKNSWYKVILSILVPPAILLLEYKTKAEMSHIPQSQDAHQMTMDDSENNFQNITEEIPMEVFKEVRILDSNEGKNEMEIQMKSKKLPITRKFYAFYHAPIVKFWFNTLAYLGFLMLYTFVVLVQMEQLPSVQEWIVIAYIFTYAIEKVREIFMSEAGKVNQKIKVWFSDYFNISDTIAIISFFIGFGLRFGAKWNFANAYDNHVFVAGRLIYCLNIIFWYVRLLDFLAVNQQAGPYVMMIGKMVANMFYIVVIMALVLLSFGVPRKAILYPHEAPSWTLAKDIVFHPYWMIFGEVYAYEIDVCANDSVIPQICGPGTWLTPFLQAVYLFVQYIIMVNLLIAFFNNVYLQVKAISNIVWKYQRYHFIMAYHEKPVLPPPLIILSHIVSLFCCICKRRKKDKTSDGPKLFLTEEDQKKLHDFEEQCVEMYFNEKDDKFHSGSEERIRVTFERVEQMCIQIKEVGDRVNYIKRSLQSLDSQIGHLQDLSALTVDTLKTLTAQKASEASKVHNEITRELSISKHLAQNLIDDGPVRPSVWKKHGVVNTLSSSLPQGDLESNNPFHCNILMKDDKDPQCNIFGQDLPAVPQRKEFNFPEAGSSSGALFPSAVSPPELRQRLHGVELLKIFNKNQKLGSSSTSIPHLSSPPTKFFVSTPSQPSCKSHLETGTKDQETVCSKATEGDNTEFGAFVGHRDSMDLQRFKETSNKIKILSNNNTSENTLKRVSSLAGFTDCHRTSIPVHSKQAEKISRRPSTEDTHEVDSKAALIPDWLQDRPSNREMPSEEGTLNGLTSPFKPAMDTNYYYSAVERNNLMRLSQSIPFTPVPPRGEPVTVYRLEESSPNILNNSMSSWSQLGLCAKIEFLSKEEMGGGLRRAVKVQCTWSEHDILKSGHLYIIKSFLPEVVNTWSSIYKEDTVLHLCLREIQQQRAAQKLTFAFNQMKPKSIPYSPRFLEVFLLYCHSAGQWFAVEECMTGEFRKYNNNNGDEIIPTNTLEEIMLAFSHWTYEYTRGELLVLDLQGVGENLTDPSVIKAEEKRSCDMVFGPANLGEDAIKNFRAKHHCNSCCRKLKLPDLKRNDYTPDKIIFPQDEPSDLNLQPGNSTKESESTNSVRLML

TRPM7 [3] = experiment: Trpm7 mRNA level by qPCR in PC12^LEPRb cells; format: cell-based; details: 48 hr exposure
Description: (§1) FIG. 8A-8C illustrates exposure of leptin to Leprb-expressing PC12^LEPRb cells increased Trpm7 promoter activity and gene transcription. (A) PC12^LEPRb cells transfected with either pEZX-Luc-vector (empty, no insert) or pEZX-Luc-Trpm7 (promoter insert) were exposed to 1 ng/ml leptin for 48 hr prior to measurement of luciferase activity. B and C) Gene expression and promoter methylation of Trpm7 in cells exposed to leptin or 5-aza-dC for 48 hr. Trpm7 mRNA level was quantitated by qPCR. Methylation status of CpG sites in Trpm7 promoter were determined by bisulfite sequencing. A total of 40 CpG sites per clone and 6 individual clones for each treatment group were sequenced. Each row of circles represented an individual clone. Putative TF binding sites such as STAT3 and NFkB were shown in scale in Trpm7 promoter. TSS: transcription start site. Boxed regions highlight the CpG sites showing differential methylation in cells exposed to leptin or 5-aza-dC. (p<0.05). Values were mean±SD.
(§2) Leptin can regulate gene transcription by binding to ObRb to activate Janus kinase 2/signal transducers and activator of transcription 3 (JAK2/STAT3) as well as ERK1/2 and PI3K pathways (FIG. 7), which are known to regulate a wide variety of genes. To examine the possible regulation of Trpm7 transcription by leptin, we searched the Trpm7 promoter sequence for potential binding sites for transcription factors (TFs). […]

[4] = mice; cited from earlier work
TRPM7 [5] = target: T1, TRPM7 (Rattus norvegicus, UniProt Q925B3); experiment: non-selective cation (TRPM7) current, amphotericin-B perforated-patch recording in PC12^LEPRb cells; format: cell-based; details: for leptin-enhanced non-selective cation current / naltriben-induced increase of the current: effect of TRPM7 antagonist
T1 construct: PC12 cells are oxygen-sensitive, express high level of TRPM7; endogenous in cells; host or cells: PC12^LEPRb cells (PC12 transfected with leptin receptor LEPRb; TRPM7 itself not transfected)
T1 sequence (Q925B3 whole entry): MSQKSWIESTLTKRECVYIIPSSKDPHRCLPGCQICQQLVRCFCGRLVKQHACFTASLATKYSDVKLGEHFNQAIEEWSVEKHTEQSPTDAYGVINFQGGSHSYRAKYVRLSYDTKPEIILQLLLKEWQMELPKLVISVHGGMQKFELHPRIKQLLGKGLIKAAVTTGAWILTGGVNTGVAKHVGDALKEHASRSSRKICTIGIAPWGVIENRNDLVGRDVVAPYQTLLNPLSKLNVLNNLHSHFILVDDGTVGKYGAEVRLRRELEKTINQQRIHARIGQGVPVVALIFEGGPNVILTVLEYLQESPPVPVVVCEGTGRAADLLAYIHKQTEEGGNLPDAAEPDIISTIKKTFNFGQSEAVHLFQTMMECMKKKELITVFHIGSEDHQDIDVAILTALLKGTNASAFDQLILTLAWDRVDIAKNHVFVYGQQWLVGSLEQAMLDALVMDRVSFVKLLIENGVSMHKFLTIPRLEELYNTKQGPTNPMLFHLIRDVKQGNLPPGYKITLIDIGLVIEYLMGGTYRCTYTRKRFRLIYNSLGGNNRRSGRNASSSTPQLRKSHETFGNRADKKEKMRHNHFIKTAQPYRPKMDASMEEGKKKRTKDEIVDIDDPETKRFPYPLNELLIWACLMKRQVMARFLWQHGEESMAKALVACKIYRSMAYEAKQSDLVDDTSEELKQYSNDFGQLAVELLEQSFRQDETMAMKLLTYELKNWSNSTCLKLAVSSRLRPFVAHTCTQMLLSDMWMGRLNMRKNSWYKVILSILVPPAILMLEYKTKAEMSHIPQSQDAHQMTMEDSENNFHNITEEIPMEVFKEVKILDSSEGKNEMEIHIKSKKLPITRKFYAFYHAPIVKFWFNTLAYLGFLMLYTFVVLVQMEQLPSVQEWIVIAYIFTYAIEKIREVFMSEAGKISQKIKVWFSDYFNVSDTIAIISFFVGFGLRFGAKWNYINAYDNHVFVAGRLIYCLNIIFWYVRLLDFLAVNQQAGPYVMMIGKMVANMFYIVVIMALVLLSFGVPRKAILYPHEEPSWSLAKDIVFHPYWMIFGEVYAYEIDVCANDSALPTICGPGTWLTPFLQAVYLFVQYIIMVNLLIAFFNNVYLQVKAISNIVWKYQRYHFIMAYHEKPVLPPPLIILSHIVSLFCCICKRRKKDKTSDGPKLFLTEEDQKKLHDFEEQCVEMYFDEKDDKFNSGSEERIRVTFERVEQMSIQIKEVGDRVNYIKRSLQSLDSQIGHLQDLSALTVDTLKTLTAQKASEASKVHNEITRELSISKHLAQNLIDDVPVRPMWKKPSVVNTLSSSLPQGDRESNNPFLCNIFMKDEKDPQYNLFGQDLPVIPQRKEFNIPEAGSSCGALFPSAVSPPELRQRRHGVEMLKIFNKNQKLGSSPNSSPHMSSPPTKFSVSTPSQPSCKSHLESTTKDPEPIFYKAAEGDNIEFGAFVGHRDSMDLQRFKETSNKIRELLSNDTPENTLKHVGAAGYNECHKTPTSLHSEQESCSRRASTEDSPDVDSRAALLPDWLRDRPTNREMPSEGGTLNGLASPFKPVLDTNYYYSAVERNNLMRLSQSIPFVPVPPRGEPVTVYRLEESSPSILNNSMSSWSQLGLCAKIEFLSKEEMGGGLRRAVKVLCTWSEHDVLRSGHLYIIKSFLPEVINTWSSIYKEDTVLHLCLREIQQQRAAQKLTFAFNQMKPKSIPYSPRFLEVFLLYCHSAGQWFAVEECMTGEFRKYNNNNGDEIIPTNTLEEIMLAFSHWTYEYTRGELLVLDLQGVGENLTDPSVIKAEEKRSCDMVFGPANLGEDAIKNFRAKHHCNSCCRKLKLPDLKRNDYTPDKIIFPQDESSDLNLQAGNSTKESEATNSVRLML
Source text: FIG. 5A-5C illustrates leptin enhances TRPM7 current in leptin receptor expressing PC12 cells.
Leptin can regulate TRPM7 channel activity. Leptin exerts its action by binding to the long form of leptin receptors (LEPRb, ObRb), which is the only functional isoform of leptin receptor. The possible effect of leptin on TRPM7 channel activity was investigated, by using LEPRb expressing adrenal pheochromocytoma PC12 (PC12^LEPRb) cells as the cell model, because PC12 cells are oxygen-sensitive, express high level of TRPM7 and have been used widely in the studies of chemoreception. Non-selective cation current was recorded using amphotericin-B perforated-patch technique in the absence of extracellular and intracellular K^+ (replaced by Cs^+) and Mg^2+, after VDCC was blocked by nifedipine and Cl^− currents were inhibited by DIDS and niflumic acid. Voltage-ramp of −100 to +100 mV elicited an outward rectifying current that resembled TRPM7 current reported in other cell types. […] The leptin-induced current was not observed in PC12 cells transfected with a control plasmid (data not shown). The present invention provides the first evidence showing activation of leptin receptor is capable of enhancing TRPM7 activity, and it supports our hypothesis that leptin may enhance CB activity through regulation of TRPM7 activity.
Obesity is a leading cause of high cardiovascular morbidity and mortality. It is characterized by an increased leptin level, which has been implicated in increased sympathetic activity and the pathogenesis of hypertension. However, the mechanism by which leptin enhances sympathetic activity is unclear. Leptin receptors (LEPRs) are expressed in the carotid bodies, the most important arterial chemoreceptors for the cardiovascular-respiratory chemoreflex. Since leptin is known to regulate many different ion channels, we hypothesize that leptin may exert its effects through modulation of TRPM7 channel activity. To test this hypothesis, the inventors used LEPR (LEPRb) expressing pheochromocytoma (PC12^LEPRb) cells, which expresses high levels of TRPM7 channels, as the cell model. Non-selective cation channels were recorded under amphotericin-B perforated-patch techniques with K^+ replaced by Cs^+ in the presence of voltage-gated Ca^2+ channel and Cl^− channel blockers. Voltage-ramp from −100 to 100 mV activated an outward-rectifying current. Removal of extracellular divalent ions enhanced the inward current, consistent with the inward divalent ion selectivity of TRPM7.

C57BL/6J mice [6] = experiment: telemetric blood pressure in mice, leptin-induced hypertension; format: in vivo, mouse
Description: Leptin signals in the CB to increase blood pressure. Male C57BL/6J mice, n=6 housed in a 12 hr light/dark cycle underwent telemetry implantation (Data Sciences) in the left femoral artery as we have described. […] After 4 day recovery mice were treated with vehicle (saline) regaining weight. On Day 17th of the protocol, carotid sinus nerve dissection (CSND, CB denervation) was performed bilaterally. After 1 week recovery, leptin and vehicle infusions were repeated. […] In contrast, CB denervation greatly modified cardiovascular effects of leptin. Indeed, in mice with intact carotid bodies leptin increased mean arterial pressure by 13 mm Hg during the day and by 16 mm Hg at night (FIG. 16A). […] Thus, leptin increases blood pressure acting in the CB.
FTY720 abolishes leptin-induced hypertension. There are multiple TRPM7 inhibitors available. We used a potent TRPM7 inhibitor FTY720 for several reasons. FTY720 is a novel immunomodulator and a structural homolog of shingosine-1-phosphate (S1P) blocking S1P effects in many diseases, including atherosclerosis, cancer, asthma, autoimmune diseases and acute lung injury. First, FTY270 has already been approved by FDA for multiple sclerosis (fingolimod). […] The experiment was performed in lean (24-26 g) C57BL/6J mice (n=5). Telemetry for continuous blood pressure recording was inserted. After 5 day recovery, mice were treated with leptin for 3 days as above. The pump was removed. After 7 day recovery, leptin was reinfused as above, but FTY720 was infused SC simultaneously at 0.1 mg/day (approximately 3 mg/kg/day).
Obesity leads to cardiovascular morbidity and mortality acting via multiple mechanisms including hypertension and obstructive sleep apnea. High levels of leptin have been associated with both conditions. The carotid bodies (CB) express leptin receptor (LepR), but the mechanism of leptin in CB is unknown. […] (CSND). In mice with intact CB, leptin increased mean arterial pressure by 13 mm Hg during the day and by 16 mm Hg at night (p=0.003 for the effect of leptin). […] Leptin receptor expression in carotid bodies of leptin receptor deficient db/db mice led to the same effect (n=6, p<0.05). […] Finally, the inventors tested the effect of a Trpm7 inhibitor on leptin-induced hypertension. The inventors performed blood pressure monitoring in male C57BL/6J mice (n=5˜9) at baseline, during leptin infusion with or without Trpm7 inhibitor, FTY720 (3 mg/kg/day, sc, n=5) for 24 hrs. […] The inventors conclude that leptin increases blood pressure acting in the CB via the Trpm7 channel.

[7] = humans; cited from earlier work
C57BL/6J mice [8] = experiment: minute ventilation and hypoxic ventilatory response (HVR) in awake lean mice; format: in vivo, mouse
Description: (§3) Leptin increases the HVR in lean mice. Minute ventilation (VE) was measured at normoxic conditions and during 3-5 min exposure to 10% O2 in awake lean male C57BL/6J mice, n=4, at baseline and during leptin administration (30 μg/day for 3 days via a subcutaneous osmotic pump). Serum leptin levels increased from 0.8±0.2 ng/ml to 33.2±1.9 ng/ml, which was similar to previously reported in DIO mice and obese humans, and then returned to the baseline. Mice decreased food intake and lost weight. Leptin increased VE at baseline as a result of an increase in the metabolic rate (FIG. 10). Leptin increased the HVR by greater than 60%.
Trpm7 inhibition prevents effects of leptin on the HVR. […] Male C57BL/6J mice (n=2) were treated with leptin for 3 days as described above. After 5 day recovery, leptin and a TRPM7 blocker NS8593 (10 mg/kg/day) were administered subcutaneously via an osmotic pump for 3 days. Mice reduced food intake and lost weight with leptin, regardless of the TRPM7 inhibitor.

Trpm7 promoter [9] = experiment: Trpm7 promoter luciferase reporter in PC12^LEPRb cells; format: cell-based; details: leptin 1 ng/ml, 48 hr
Description: as §1, §2

Trpm7 promoter [10] = experiment: Trpm7 promoter methylation by bisulfite sequencing in PC12^LEPRb cells; format: cell-based; details: leptin exposure
Description: as §1, §2

[11] = serum leptin levels during leptin administration; format: in vivo, mouse; details: leptin 30 μg/day for 3 days, subcutaneous osmotic pump
Description: as §3

[12] = NS8593 10 mg/kg/day subcutaneously via osmotic pump for 3 days with leptin, 10 mg/kg/day
[13] = leptin infusion for 3 days, intact carotid bodies

NCCOB(c1ccccc1)c1ccccc1 [2-APB, 2-aminoethoxydiphenylborane]
leptin-enhanced hypoxia-induced CSN activity [1]: blocked
elevation of [Ca2+]i induced by hypoxia, NaCN and FCCP (rat glomus cells): inhibited
TRPM7 channel activity (TRPM7 [2]): inhibited

Nc1ncn([C@H]2C[C@H](O)[C@@H](CO)O2)c(=O)n1 [5-aza-dC]
Trpm7 mRNA level (TRPM7 [3]): increased

CCCCCCCCc1ccc(CCC(N)(CO)CO)cc1 [FTY720, 2-amino-2-[2-(4-octylphenyl)ethyl]propane-1,3-diol]
half-life [4]: 19 to 28 h
leptin-enhanced non-selective cation current (TRPM7 [5]): significantly inhibited; also recorded: completely blocked
naltriben-induced increase of the current (TRPM7 [5]): abolished
leptin-enhanced non-selective cation current (TRPM7 [5]; listed as FTY120): almost completely abolished
leptin-induced hypertension (C57BL/6J mice [6]; FTY720 SC 0.1 mg/day (approximately 3 mg/kg/day) with leptin): completely abolished; also recorded: prevented
half-life [7]: 170 h
TRPM7 channel activity (TRPM7 [2]): inhibited

Cl.c1ccc2c(c1)CCC[C@H]2Nc1nc2ccccc2[nH]1 [NS8593, N-[(1R)-1,2,3,4-Tetrahydro-1-naphthalenyl]-1H-Benzimidazol-2-aminehydrochloride]
leptin-enhanced non-selective cation current (TRPM7 [5]): completely blocked; also recorded: almost completely abolished
naltriben-induced increase of the current (TRPM7 [5]): abolished
basal ventilation (C57BL/6J mice [8]; NS8593 10 mg/kg/day subcutaneously via osmotic pump for 3 days with leptin): without any effect
leptin-induced hypoxic hyperventilation (VE during acute hypoxia) (C57BL/6J mice [8]; [12]): abolished; also recorded: prevented
leptin-induced increase in the HVR (C57BL/6J mice [8]; [12]): abolished; also recorded: abolishing
TRPM7 channel activity (TRPM7 [2]): inhibited

COc1ccc(CCCOC(Cn2ccnc2)c2ccc(OC)cc2)cc1 (centres unmarked) [SKF96365]
leptin-enhanced hypoxia-induced CSN activity [1]: dampened; also recorded: blocked

Cc1ccc(C(C)C)cc1O [carvacrol]
TRPM7 channel activity (TRPM7 [2]): inhibited

Oc1ccc2c3c1O[C@H]1c4oc5ccccc5c4C[C@@]4(O)[C@@H](C2)N(CC2CC2)CC[C@]314 [naltriben]
outward rectifying non-selective cation (TRPM7) current (TRPM7 [5]; effect of TRPM7 agonist (50 μM elsewhere in the source), voltage-ramp −100 to +100 mV): significant augmentation; also recorded: significant increase
TRPM7 channel activity (TRPM7 [2]): activated

CCCCCCCCCCCCC/C=C/[C@@H](O)[C@@H](N)CO [sphingosine]
TRPM7 channel activity (TRPM7 [2]): inhibited

leptin: an adipocyte-produced hormone
hypoxia-induced CSN activity [1]: significantly augmented
hypoxia-induced CSN activity ([1]; listed as Leptin): augments
Trpm7 promoter luciferase activity (Trpm7 promoter [9]): significantly increased
outward rectifying non-selective cation (TRPM7) current (TRPM7 [5]; effect of leptin (10-100 ng/ml elsewhere in the source)): enhances; also recorded: concentration-dependent increase
heart rate (C57BL/6J mice [6]; leptin): increases
mean arterial pressure, in words (C57BL/6J mice [6]; leptin): increases
increase of mean arterial pressure at night (C57BL/6J mice [6]; [13]): 16 mm Hg
increase of mean arterial pressure during the day (C57BL/6J mice [6]; [13]): 13 mm Hg
methylation status of Trpm7 promoter (Trpm7 promoter [10]): CpG site-specific demethylation
body weight (C57BL/6J mice [8]; leptin 30 μg/day for 3 days): lost weight
food intake (C57BL/6J mice [8]; leptin 30 μg/day for 3 days): decreased
increase of the HVR (C57BL/6J mice [8]; leptin 30 μg/day for 3 days, subcutaneous osmotic pump, 10% O2): greater than 60%
hypoxic ventilatory response (HVR), in words (C57BL/6J mice [8]; leptin infusion): increased
minute ventilation (VE) at baseline (C57BL/6J mice [8]; leptin infusion, normoxic): increased
Trpm7 mRNA level (TRPM7 [3]): increased; also recorded: significant increase
serum leptin levels [11]: 33.2 ± 1.9 ng/mL
